Results published in publication PMC9268484, “New Flavonoid Derivatives from Melodorum fruticosum and Their α-Glucosidase Inhibitory and Cytotoxic Activities” (Molecules, 2022).
Read-outs that look alike come from different tables or passages of the source.

Key:
[1] = MTT cytotoxicity assay, MCF7; format: cell-based; conditions: human, means ± SD of three replicates
Procedure: (§1) The cancer cells were cultured in Dulbecco’s Modified Eagle’s Medium with 10% Fetal Bovine Serum, 1% penicillin and streptomycin, and 1% L-glutamine at 37 °C in a 5% CO2 environment. The tested compounds were added at concentrations ranging from 0.5 to 128 μg/mL by dissolving in DMSO (20 mg/mL) and incubated for a further 72 h in the identical condition. After the treatment, each well was filled with an MTT solution (10 μL, 5 mg/mL) of phosphate buffer, which was left to stand for 4 h until intracellular purple formazan crystals appeared. The MTT was removed and a 100 μL DMSO solution was added. The blank contained only a medium without any cells and MTT, as well as the solubilizing solution. The solution’s optical density (OD) at 540 nm was recorded on a BIOTEK reader. All experiments were carried out in triplicate for three independent experiments. IC50 values were computed graphically using inhibition curves.

[2] = tested on: α-glucosidase; design: method as in doi:10.1016/S0031-9422(99)00314-3; conditions: cited from earlier work
[3] = tested on: KB cell line; design: method as in doi:10.1016/j.phytol.2012.09.007; conditions: read-out: Cytotoxicity IC50, KB (previous research); cited from earlier work
[4] = tested on: MCF7 cell line; conditions: cited from earlier work
[5] = tested on: normal Vero cell line; design: method as in doi:10.1007/s00044-017-1843-8; conditions: cited from earlier work
[6] = tested on: Hep G2 cell line; design: method as in PMID 29116937, doi:10.1016/j.phytol.2019.05.003; conditions: read-out: Cytotoxicity IC50, Hep G2 (previous research); cited from earlier work
[7] = MTT cytotoxicity assay, Hep G2; format: cell-based; conditions: human, means ± SD of three replicates
Procedure: as §1

[8] = MTT cytotoxicity assay, KB; format: cell-based; conditions: human, means ± SD of three replicates
Procedure: as §1

[9] = MCF-7 cells (human breast adenocarcinoma)
[10] = read-out: Cytotoxicity IC50, MCF7 (previous research)

SMILES: CC(C)=CCc1cc2c(c(O)c1O)C(=O)C[C@@H](c1ccccc1)O2 [Compound 3, melodorone C]
- IC50 at 72 h [1, 9]: > 100 µM

SMILES: COc1cc(O)c2c(=O)cc(-c3ccccc3)oc2c1 [Compound 4, tectochrysin]
- α-Glucosidase inhibition (previous research, in words) [2]: no α-glucosidase inhibition
- IC50 [3]: 55.3 µM
- IC50 [4, 10]: 16.7 µM

SMILES: O=c1cc(-c2ccccc2)oc2cc(O)cc(O)c12 [Compound 5, chrysin]
- IC50 ([2]; read-out: α-Glucosidase inhibition IC50 (previous research)): 5.7 µM
- Cytotoxicity against normal Vero cell line [5]: no cytotoxicity
- IC50 [4, 10]: 37.2 µM
- IC50 [6]: 50.6 µM

SMILES: COc1cc2c(c(O)c1OC)C(=O)C[C@@H](c1ccccc1)O2 [Compound 6, onysilin]
- IC50 at 72 h [1]: > 100 µM
- IC50 at 72 h [7]: > 100 µM
- IC50 at 72 h [8]: > 100 µM

SMILES: O=C1C[C@@H](c2ccccc2)Oc2cc(O)cc(O)c21 [Compound 7, pinocembrin]
- α-Glucosidase inhibition (previous research, in words) [2]: no α-glucosidase inhibition
- IC50 at 72 h [1, 9]: > 100 µM
- Cytotoxicity against normal Vero cell line [5]: no cytotoxicity
- IC50 at 72 h ([7]; Hep G2 cells (human hepatocellular carcinoma)): > 100 µM
- IC50 at 72 h ([8]; KB cells (human epidermoid carcinoma)): > 100 µM
- IC50 ([4]; 48 h, read-out: Cytotoxicity IC50, MCF7, 48 h): 226 µM
- IC50 ([4]; 72 h, read-out: Cytotoxicity IC50, MCF7, 72 h): 108 µM
